Our source for the IC50 and melting point values is patent publication US11180487B2, “Substituted cyanoindoline derivatives as NIK inhibitors” (Janssen Pharmaceutica NV, priority 2016, dated 2021).

The melting point is the temperature of the solid-liquid transition.

Series [1] deals with P-IKKα levels in L363 (NIK translocated multiple myeloma) cells. In words: Effect of compounds on P-IKKα levels in L363 cells (Mesoscale sandwich immuno-assay), Biological Assay B. In kind it is cell-based, human. As to conditions: Homo sapiens, L-363, 2 h, 2 hr treatment, averaged values, read-out: Inhibition of pIKKα_L-363 (IC50 (nM)). Put shortly:
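L363 NIK-translocated myeloma cells primed 24 h with 1 μg/ml BAFF (stock), then treated 2 h with compound (1% DMSO, 8-point 1:3 dilutions). Lysate P-IKKα measured by Mesoscale sandwich immunoassay; MG132+BAFF controls, blank with 10 μM ADS125117 subtracted. IC50 from sigmoidal fit of % inhibition versus log concentration.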

The target of series [2] is recombinant human NF-kappaB-inducing kinase (NIK/MAP3K14) (Homo sapiens, UniProt Q99558). Description: Inhibition of auto-phosphorylation of recombinant human NIK/MAP3K14 activity (AlphaScreen), Biological Assay A. The following applies: averaged values over all measurements on all batches. In kind it is biochemical. Put shortly: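 GST-tagged enzyme (0.2 nM) incubated with compound and 25 μM ATP in 50 mM Tris pH 7.5, 5 mM MgCl2, 1 mM EGTA, 1 mM DTT, 0.1 mM Na3VO4, 1% DMSO, 1 h at 25 °C. Stopped with anti-phospho-IKK Ser176/180 antibody; AlphaScreen bead read, blank-subtracted, IC50 from sigmoidal fit.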
For orientation: Alpha assays give light when donor and acceptor beads are brought close together.

Series [3] relates to KMS12-BM (NIK WT) multiple myeloma cells. Description: Antiproliferative activity on KMS12-BM multiple myeloma cells (CellTiter-Glo, 96 hr), Biological Assay C. The following applies: Homo sapiens, KMS-12-BM, 96 h, averaged values, read-out: KMS-12 Proliferation inhibition (IC50 (nM)). In kind it is cell-based, human. Put shortly:
(§1)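 JJN-3 and KMS12-BM cells in RPMI 1640 with 10% FCS were plated at 15000–20000 cells/well and treated 96 h with a 9-point 1:3 dilution series (0.3% DMSO). Viability read by CellTiter-Glo luminescence, blank (time-zero cells) subtracted, expressed as % of untreated control; duplicate wells.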
A general note: In ATP-based viability assays light output follows the ATP content of the culture.

The test system of series [4] is JJN-3 (NIK translocated) multiple myeloma cells. In words: Antiproliferative activity on JJN-3 multiple myeloma cells (CellTiter-Glo, 96 hr), Biological Assay C. In kind it is cell-based, human. As to conditions: Homo sapiens, JJN-3, 96 h, JJN-3 (NIK translocated) cells, averaged values, read-out: JJN-3 Proliferation inhibition (IC50 (nM)). The gist of the method:
as §1

Chain of recombinant human NF-kappaB-inducing kinase (NIK/MAP3K14) (Q99558 whole entry): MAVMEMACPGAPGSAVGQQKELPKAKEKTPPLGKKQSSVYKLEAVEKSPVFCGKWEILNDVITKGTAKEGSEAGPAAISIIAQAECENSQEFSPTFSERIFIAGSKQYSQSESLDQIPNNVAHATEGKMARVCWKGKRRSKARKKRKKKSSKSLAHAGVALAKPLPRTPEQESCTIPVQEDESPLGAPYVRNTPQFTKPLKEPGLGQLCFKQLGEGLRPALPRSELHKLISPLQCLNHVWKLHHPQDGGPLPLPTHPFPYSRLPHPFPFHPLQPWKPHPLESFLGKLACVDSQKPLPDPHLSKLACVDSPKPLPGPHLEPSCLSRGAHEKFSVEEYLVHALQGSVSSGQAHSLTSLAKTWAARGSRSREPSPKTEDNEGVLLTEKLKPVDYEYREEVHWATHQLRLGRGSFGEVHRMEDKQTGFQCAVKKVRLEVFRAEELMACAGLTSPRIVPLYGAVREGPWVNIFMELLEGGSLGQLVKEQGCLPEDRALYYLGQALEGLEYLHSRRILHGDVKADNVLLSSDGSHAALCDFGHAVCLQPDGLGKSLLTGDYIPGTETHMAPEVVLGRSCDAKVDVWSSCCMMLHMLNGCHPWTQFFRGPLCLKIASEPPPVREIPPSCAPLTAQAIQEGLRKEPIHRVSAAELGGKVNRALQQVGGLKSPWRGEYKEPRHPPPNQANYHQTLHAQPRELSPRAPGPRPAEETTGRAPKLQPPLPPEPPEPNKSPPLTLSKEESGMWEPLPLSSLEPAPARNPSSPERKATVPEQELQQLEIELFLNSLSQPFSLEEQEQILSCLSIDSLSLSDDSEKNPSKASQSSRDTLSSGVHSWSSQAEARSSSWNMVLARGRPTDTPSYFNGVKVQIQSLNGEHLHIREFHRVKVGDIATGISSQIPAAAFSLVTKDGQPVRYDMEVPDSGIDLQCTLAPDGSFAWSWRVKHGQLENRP

Consider `CN(C)Cc1cc(Nc2nccc(-c3cc(C#N)c4c(c3)[C@@](C)(CO)CN4)n2)ccc1C1CCOCC1` [Compound 236], for which the melting point came to 249 °C. In series [1], the IC50 came to 42.7 nM. The IC50 in series [2] stood at 2.6 nM. The IC50 in series [3] is 178 nM. The IC50 in series [4] is 32 nM.
For `CCS(=O)(=O)N(C)c1cccc(Nc2nccc(-c3cc(C#N)c4c(c3)C(C)(CO)CN4)n2)c1` (stereo not shown) [Compound 240] the same measures were 259 °C, 11.2 nM, 2.5 nM, 302 nM and 44 nM.
